Results from US20100035756A1, “TRIAZOLOPHYRIDINE DERIVATIVES AS HERBICIDES” (SYNGENTA LIMITED, priority 2006, published 2010).
“And” between values parts separate entries of the source, which are not always exact repeats. Equal values may be shown once.

Columns and labels:
Assay type in all cases: in vivo
Nasturtium officinale = assay: Microscreen (pre-emergence), Example B3; conditions: preemergent application, 250 g/ha, evaluated 8 days later, 100%=total damage
Digitaria sanguinalis = assay: Microscreen (pre-emergence), Example B3; conditions: preemergent application, 250 g/ha, evaluated 8 days later, 100%=total damage
Amaranthus retroflexus = assay: Microscreen (pre-emergence), Example B3; conditions: preemergent application, 250 g/ha, evaluated 8 days later, 100%=total damage
[1] = test system: Monocotyledonous and dicotyledonous test plants; assay: Herbicidal action prior to emergence of the plants (pre-emergence action), Example B1; conditions: preemergence application, 250 g/ha, evaluated after 4 weeks, 100%=total damage, 0%=no damage
Procedure: (§1) Monocotyledonous and dicotyledonous test plants are sown in seed trays in standard soil. Immediately after sowing, the test compounds are applied by spraying in the form of an aqueous suspension (prepared from a wettable powder (Example F3, b) according to WO 97/34485) or in the form of an emulsion (prepared from an emulsifiable concentrate (Example F1, c) according to WO 97/34485) in a concentration of 250 g/ha. The test plants are then grown in a greenhouse under optimum conditions. After a 4-week test period, the test is evaluated (100%=total damage to plant; 0%=no damage to plant; NC not evaluated).

Solanum nigrum = assay: Microscreen (pre-emergence), Example B3; conditions: preemergent application, 250 g/ha, evaluated 8 days later, 100%=total damage
Agrostis tenuis = assay: Microscreen (pre-emergence), Example B3; conditions: preemergent application, 250 g/ha, evaluated 8 days later, 100%=total damage
Stellaria media = assay: Microscreen (pre-emergence), Example B3; conditions: preemergent application, 250 g/ha, evaluated 8 days later, 100%=total damage
Setaria italica = assay: Microscreen (pre-emergence), Example B3; conditions: preemergent application, 250 g/ha, evaluated 8 days later, 100%=total damage
[2] = test system: Monocotyledonous and dicotyledonous test plants; assay: Herbicidal action after emergence of the plants (post-emergence herbicidal action), Example B2; conditions: postemergent application, 125 g/ha, 2- to 3-leaf stage, evaluated after 2-3 weeks, 100%=total damage
Procedure: as §1, with “When the test plants are at the 2- to 3-leaf stage,” for “Immediately after sowing,”, “125” for “250”, “grown on” for “grown”, “2- to 3-week” for “4-week”, “plant).” for “plant; NC not evaluated).”

SMILES | herbicidal damage, ABUTH [1] [%] | herbicidal damage, AMARE [1] [%] | herbicidal damage, BRAPL [1] [%] | herbicidal damage, DIGSA [1] [%] | herbicidal damage, ECHCG [1] [%] | herbicidal damage, SETFA [1] [%] | herbicidal damage, STEME [1] [%] | herbicidal damage, VERPE [1] [%] | herbicidal damage, ABUTH [2] [%] | herbicidal damage, AMARE [2] | herbicidal damage, CHEAL [2] [%] | herbicidal damage, DIGSA [2] [%] | herbicidal damage, SETFA [2] [%] | herbicidal damage, SINAR [2] | herbicidal damage, VERPE [2] | herbicidal damage, XANST [2] | also measured
Cc1nnc2c(C(=O)C3=C(O)C4(CCC3=O)CC4)ccc(C(F)(F)F)n12 [41.2] | 80 | 100 | 80 | 100 | 100 | 80 | 70 | 90 | – | – | – | – | – | – | – | – | herbicidal damage, Nasturtium (Nasturtium officinale): 100%; herbicidal damage, Digitaria (Digitaria sanguinalis): 100%; herbicidal damage, Amaranthus (Amaranthus retroflexus): 100%; herbicidal damage, Solanum (Solanum nigrum): 100%; herbicidal damage, Agrostis (Agrostis tenuis): 100%; herbicidal damage, Stellaria (Stellaria media): 90%; herbicidal damage, Setaria (Setaria italica): 80%
O=C1CCCC(O)=C1C(=O)c1ccc(C(F)(F)F)n2c(Br)nnc12 [Compound 3.3] | 100 | 100 | 0 | 0 | 0 | 0 | 70 | 30 | 70 | 70% | 80 | 70 | 30 | 70% | 80% | 80% | –
CCc1nnc2c(C(=O)C3=C(O)CCCC3=O)ccc(C(F)(F)F)n12 [Compound 3.5] | 100 | 70 | 80 | 90 | 70 | 90 | 60 | 30 | 90 | 100% | 90 | 80 | 70 | 80% | 90% | 80% | –
CC(C)c1nnc2c(C(=O)C3=C(O)CCCC3=O)ccc(C(F)(F)F)n12 [Compound 3.6] | 90 | 70 | 60 | 90 | 90 | 50 | 20 | 20 | 80 | 70% | 90 | 70 | 70 | 90% | 100% | 90% | –
O=C1CCCC(O)=C1C(=O)c1ccc(C(F)(F)F)n2c(C3CC3)nnc12 [Compound 3.7] | 30 | 30 | 30 | 30 | 10 | 10 | 20 | 10 | 80 | 90% | 70 | 80 | 80 | 90% | 80% | 80% | –
Cc1nnc2c(C(=O)C3=C(O)CC(C)CC3=O)ccc(C(F)(F)F)n12 (stereo not shown) [Compound 4.3] | 70 | 100 | 100 | 100 | 100 | 40 | 80 | 100 | – | – | – | – | – | – | – | – | herbicidal damage, Nasturtium (Nasturtium officinale): 100%; herbicidal damage, Digitaria (Digitaria sanguinalis): 100%; herbicidal damage, Amaranthus (Amaranthus retroflexus): 100%; herbicidal damage, Solanum (Solanum nigrum): 100%; herbicidal damage, Agrostis (Agrostis tenuis): 100%; herbicidal damage, Stellaria (Stellaria media): 80%; herbicidal damage, Setaria (Setaria italica): 60%
CC(C)c1nnc2c(C(=O)C3=C(O)C(C)(C)C(=O)C(C)(C)C3=O)ccc(C(F)(F)F)n12 [Compound 5.4] | 100 | 100 | 100 | 60 | 40 | 30 | 100 | 100 | 80 | 90% and 70% | 80 | – | 50 | 70% and 80% | 80% and 90% | 70% and 90% | –
COCc1nnc2c(C(=O)C3=C(O)C(C)(C)C(=O)C(C)(C)C3=O)ccc(C(F)(F)F)n12 [Compound 5.5] | – | 60 | 20 | 10 | 60 | 20 | 70 | 90 | 80 | 90% | 80 | 10 | 50 | 70% | 80% | 70% | –
CC1(C)C(=O)C(C(=O)c2ccc(C(F)(F)F)n3c(-c4ccc(Cl)cc4)nnc23)=C(O)C(C)(C)C1=O [Compound 5.10] | 100 | 100 | 20 | 40 | 20 | 0 | 30 | – | 80 | 80% | 70 | 20 | 30 | 80% | 100% | 80% | –
Cc1nnc2c(C(=O)c3cnn(C)c3O)ccc(C(F)(F)F)n12 [Compound 6.3] | 10 | 70 | – | 30 | 30 | 0 | 40 | 80 | 60 | 90% | 70 | 80 | 60 | 80% | 80% | 80% | –
